Measurements taken from patent US7794994B2 (Kemeta, LLC, priority 2001, dated 2010).
“And” between values parts separate entries of the source, which are not always exact repeats. Equal values may be shown once.

Experiments:
[1] = test system: S-ADH purified from M vaccae strain JOB-5; details: M vaccae enzyme; alcohols oxidized, acetone reduced; cited from earlier work
S-ADH from C. boidinii = test: S-ADH spectrophotometric assay, C. boidinii S-ADH; type: biochemical, Candida boidinii; details: pH 7.6, 5 mM substrate; for Relative S-ADH Activity (%) C. boidinii, alcohol oxidation: alcohol oxidation rates, 0.2 mM NAD+, 2-propanol = 100; for Relative S-ADH Activity (%) C. boidinii, ketone reduction: ketone reduction rates, 0.2 mM NADH, acetone = 100
Description: Assays were performed in 2 mL quartz cuvettes and contained NAD(H) (0.2 mM), potassium phosphate buffer (25 mM), and a source of enzyme (cell-free extracts, column fractions, or purified enzyme) in a total reaction volume of 1 mL at pH 6.2 ([…]) at 30° C. Assays were pre-incubated for 1.5 min. at 30° C. with all assay components except substrate. […]

[2] = test system: S-ADH from X. autotrophicus strain Py2; test: Secondary alcohol dehydrogenase NADH oxidation spectrophotometric assay; type: biochemical, Xanthobacter autotrophicus strain Py2; details: for specific activity, alcohol oxidation: at pH 7.8; for inhibition of S-ADH activity: saturating acetone, alcohol at about 13-fold over the Km value for acetone, data not shown; for Relative S-ADH Activity (%) X. Py2, alcohol oxidation: alcohol oxidation rates, pH 7.6, 2.5 mM substrate, 0.2 mM NAD+, 2-propanol = 100, NA = no activity detected; for Relative S-ADH Activity (%) X. Py2, ketone reduction: ketone reduction rates, pH 6.2, 2.5 mM substrate, 0.2 mM NADH, acetone = 100
Description: (§1) Assays were performed in 2 mL quartz cuvettes and contained NAD(H) (0.2 mM), potassium phosphate buffer (25 mM), and a source of enzyme (cell-free extracts, column fractions, or purified enzyme) in a total reaction volume of 1 mL at pH 6.2 ([…]) at 30° C. Assays were pre-incubated for 1.5 min. at 30° C. with all assay components except substrate. Assays were initiated by addition of substrate (2.5 mM) and monitored over time by measuring the change in absorbance at 340 nm (∈340 of 6.22 mM^−1·cm^−1 for NADH).
Data analysis. Kinetic constants (Km and Vmax) were calculated by fitting initial rate data to the Michaelis-Menten equation and using the software KaleidaGraph Fourth Edition, (Synergy Software, Reading, Pa.).

S-ADH from strain IP-1 = test: S-ADH spectrophotometric assay, partially purified S-ADH of isolate IP-1; type: biochemical, isopropanol-grown bacterial strain TDCC IP-1; details: for Relative S-ADH Activity (%) IP-1, alcohol oxidation: alcohol oxidation rates, pH 7.6, 2.5 mM substrate, 0.2 mM NAD+, 2-propanol = 100, NA = no activity detected; for Relative S-ADH Activity (%) IP-1, ketone reduction: ketone reduction rates, pH 6.2, 2.5 mM substrate, 0.2 mM NADH, acetone = 100
Description: Protein purifications. […] Secondary alcohol dehydrogenase (S-ADH) from X. autotrophicus Py2 was purified via the following protocol. Cell-free extracts (380 mL) of isopropanol-grown X. autotrophicus Py2 (150 g) were prepared as described above, and applied to a 5×15 cm column of DEAE-Sepharose FAST FLOW (Diethylaminoethyl cross-linked agarose bead material; Catalog number 17-0709-10, Amersham Pharmacia Biotech, Piscataway, N.J.)) equilibrated in buffer A (25 mM MOPS (3-(N-morpholino)propanesulfonic acid), pH 7.6, 5% glycerol, 1 mM dithiothreitol) at a flow rate of 10 mL/min. After loading, the column was washed with […] buffer A and developed with a 2400 mL linear gradient of 90-290 mM KCl in buffer A. Fractions containing S-ADH activity were pooled and dialyzed against 2 L of 25 mM potassium phosphate (pH 6.2) containing 5% glycerol (buffer B) for 16 h at 4° C. […] After washing the column with 30 mL of buffer B, S-ADH was eluted with 20 mL of buffer A containing 10 mM NAD^+. Fractions containing S-ADH were then dialyzed against 2 L of buffer A for 16 h at 4° C., concentrated by ultrafiltration (using a YM30 ultrafiltration membrane; catalog no. 13722, from Millipore, Bedford, Mass.), and frozen in liquid nitrogen. Partially purified S-ADH from bacterial screen cultures was prepared as follows: cell-free extracts from 1 to 5 g of cell paste were prepared as described above and applied to a 5 mL HI TRAP Q column (quaternary, tetraethylammonium, cross-linked agarose bead material for use as an anion exchange matrix; catalog number 17-1153-01, Amersham Pharmacia Biotech) equilibrated in 100 mM MOPS, pH 7.6, containing 5% (v/v) glycerol (buffer C). The column was washed with 10 mL buffer C and developed with a 100 mL linear gradient of 0 to 100 mM NaCl in buffer C. Fractions containing S-ADH activity were pooled, concentrated to 0.5 mL using a 30 kDa MWCO (“molecular weight cut-off”) centrifugal membrane (catalog number UFV4BTK25, Millipore), and stored at −80° C.
as §1

[3] = test system: 3-enzyme system (S-ADH coupled to lactate dehydrogenase and pyruvate oxidase); test: S-ADH coupled to H2O2 formation electrochemical assay (3-enzyme system), interference compounds; type: biochemical, X. autotrophicus Py2; details: for interference with the acetone measurement (current response): Acetone plus 10 mM ethanol, 50 μM isopropanol or 50 μM isobutanol, data not shown
Description: Secondary alcohol dehydrogenase coupled to H2O2 formation electrochemical assay. […] Before measurements the electrode surface was polished using Al2O3 paste for 1 min. and then rinsed with deionized water, sonicated for 1 min. and rinsed with water again. The polished Pt electrode was then pretreated electrochemically by applying 10 cycles of 100 mV/s from +200 mV to +900 mV. All potentials were referenced versus a Ag/AgCl electrode (BAS part number MF-2078). Assays contained potassium phosphate (100 mM, pH 7.2), purified S-ADH (1 U/mL), NADH (201 μM), lactate (100 mM), lactate dehydrogenase (5 U/mL), pyruvate oxidase (4 U/mL), flavin adenine dinucleotide (0.01 mM), cocarboxylase (0.2 mM), in a total volume of 0.5 mL. […] After a 2 min. incubation period, the potential was stepped from open circuit to 350 mV.

S-ADH from T. brockii = molecular target: T1, S-ADH from T. brockii (Thermoanaerobacter brockii, UniProt P14941); test: S-ADH spectrophotometric assay, T. brockii S-ADH; type: biochemical, Thermoanaerobium brockii; details: for Relative S-ADH Activity (%) T. brockii, alcohol oxidation: alcohol oxidation rates, pH 7.6, 2.5 mM substrate, 0.2 mM NADP+, 2-propanol = 100, NA = no activity detected; for Relative S-ADH Activity (%) T. brockii, ketone reduction: ketone reduction rates, pH 6.2, 2.5 mM substrate, 0.2 mM NADPH, acetone = 100
T1 sequence (P14941 1-352): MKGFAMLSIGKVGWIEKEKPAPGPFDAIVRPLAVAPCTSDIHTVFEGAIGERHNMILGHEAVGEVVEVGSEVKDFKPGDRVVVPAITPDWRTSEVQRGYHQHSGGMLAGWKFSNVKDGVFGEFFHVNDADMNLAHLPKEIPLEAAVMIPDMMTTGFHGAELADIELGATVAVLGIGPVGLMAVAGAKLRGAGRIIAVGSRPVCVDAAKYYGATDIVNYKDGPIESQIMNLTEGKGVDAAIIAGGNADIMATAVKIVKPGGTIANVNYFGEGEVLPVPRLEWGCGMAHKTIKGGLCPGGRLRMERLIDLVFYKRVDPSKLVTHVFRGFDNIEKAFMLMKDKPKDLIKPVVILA
Description: […] Assays were pre-incubated for 1.5 min. at 30° C. with all assay components except substrate. Assays were initiated by addition of substrate (2.5 mM) and monitored over time by measuring the change in absorbance at 340 nm (∈340 of 6.22 mM^−1·cm^−1 for NADH).

CCCO [1-Propanol]
Km [1]: 8100 µM
Relative S-ADH Activity (%) C. boidinii, alcohol oxidation (S-ADH from C. boidinii): 9%
specific activity, alcohol oxidation [2]: No activity
inhibition of S-ADH activity [2]: no inhibition was observed
Relative S-ADH Activity (%) IP-1, alcohol oxidation (S-ADH from strain IP-1): 2%

CCO [Ethanol]
Relative S-ADH Activity (%) C. boidinii, alcohol oxidation (S-ADH from C. boidinii): 9%
S-ADH activity in the presence of ethanol ([2]; 41 mM ethanol, equivalent to 500 ppm (v/v) gas phase ethanol): 82-85%
specific activity, alcohol oxidation [2]: No activity
inhibition of S-ADH activity [2]: no inhibition was observed
interference with the acetone measurement (current response) [3]: do not interfere
Relative S-ADH Activity (%) IP-1, alcohol oxidation (S-ADH from strain IP-1): 9%

CC(C)O [2-Propanol]
Km [1]: 50 µM
Relative S-ADH Activity (%) T. brockii, alcohol oxidation (S-ADH from T. brockii): 100%
Relative S-ADH Activity (%) C. boidinii, alcohol oxidation (S-ADH from C. boidinii): 100%
Relative S-ADH Activity (%) X. Py2, alcohol oxidation [2]: 100%
specific activity, alcohol oxidation [2]: 24±1.8 μmol alcohol oxidized min^−1mg^−1 protein
interference with the acetone measurement (current response) [3]: do not interfere
Relative S-ADH Activity (%) IP-1, alcohol oxidation (S-ADH from strain IP-1): 100%

CC(C)=O [Acetone, acetone]
Km [1]: 300 µM
Relative S-ADH Activity (%) T. brockii, ketone reduction (S-ADH from T. brockii): 100%
Relative S-ADH Activity (%) C. boidinii, ketone reduction (S-ADH from C. boidinii): 100%
Relative S-ADH Activity (%) X. Py2, ketone reduction [2]: 100%
Km ([2]; reduction of acetone to isopropanol, NADH at fixed saturating concentration, read-out: apparent Km): ~144 µM and 144 µM
Relative S-ADH Activity (%) IP-1, ketone reduction (S-ADH from strain IP-1): 100%

CCC(C)O (stereo not shown) [2-Butanol]
Relative S-ADH Activity (%) T. brockii, alcohol oxidation (S-ADH from T. brockii): 121%
Relative S-ADH Activity (%) C. boidinii, alcohol oxidation (S-ADH from C. boidinii): 100%
Relative S-ADH Activity (%) X. Py2, alcohol oxidation [2]: 88%
specific activity, alcohol oxidation [2]: 21±3.6 μmol alcohol oxidized min^−1mg^−1 protein and 37±1.1 μmol alcohol oxidized min^−1mg^−1 protein
Relative S-ADH Activity (%) IP-1, alcohol oxidation (S-ADH from strain IP-1): 147%

CCC(C)=O [2-Butanone]
Relative S-ADH Activity (%) T. brockii, ketone reduction (S-ADH from T. brockii): 67%
Relative S-ADH Activity (%) C. boidinii, ketone reduction (S-ADH from C. boidinii): 175%
Relative S-ADH Activity (%) X. Py2, ketone reduction [2]: 170%
current response relative to acetone ([3]; 50 μM butanone): equivalent to 50 μM acetone
Relative S-ADH Activity (%) IP-1, ketone reduction (S-ADH from strain IP-1): 192%
